Assay results taken from patent US8986995B2, “Methods of deriving differentiated cells from stem cells” (International Stem Cell Corporation, priority 2008, dated 2015).
Entries after “also recorded” stand apart in the source; their conditions may differ.

What was measured:
[1] = tested on: hpSC; assay: Proportion of DE derived from hpSC, HDAC inhibitor pretreatment versus simultaneous application with Activin A; type: cell-based, human; conditions: for enhancement in the proportion of DE produced from hpSC: applied at the same time with Activin A
[2] = tested on: hpSC line 2 p; assay: Flow cytometry for CXCR4-positive definitive endoderm cells after differentiation, line 2 p; type: cell-based, human; conditions: TSA pretreatment
Method: (§1) Cell culture. Undifferentiated hpSC and hESC were maintained on mouse embryo fibroblast feeder layers in KnockOut DMEM/F12 (Invitrogen) supplemented with 15% KnockOut serum replacement (Invitrogen), 0.05 mM nonessential amino acids (NEAA) (Invitrogen), 2 mM Glutamax-I (Invitrogen), penicillin/streptomycin (Invitrogen), 55 μM 2-mercapthoethonol (Invitrogen), 5 ng/ml recombinant human FGF-basic (PeproTech) and 20 ng/ml recombinant human activin A (R&D Systems); for TSA-pretreatment culture medium was supplemented with 100 nM TSA (Sigma) for 24 hours. Cultures were manually passaged at 1:4-1:6 split ratio every 5-7 days. Differentiation was carried out in RPMI 1640 (Invitrogen) supplemented with Glutamax-I, penicillin/streptomycin, 0.5 mg/ml human serum albumin (Sigma), 100 ng/ml recombinant human Activin A, 75 ng/ml recombinant mouse Wnt3a (R&D Systems) for the first 24 hours only. For subsequent days of differentiation media was RPMI 1640 supplemented with 0.2% human AB serum (Fisher BioReagents) and 100 ng/ml recombinant human Activin A. Before initiating differentiation, stem cells were given a brief wash in DPBS (HyClone). […]
(§2) Flow cytometry. […] Flow cytometry data were acquired on a Beckton Dickinson FACS Caliber and analyzed using FACSDiva software (BD Bioscience).

[3] = tested on: hpSC line 6 p; assay: Flow cytometry for CXCR4-positive definitive endoderm cells after differentiation, line 6 p; type: cell-based, human; conditions: TSA pretreatment
Method: as §1, §2

[4] = tested on: hpSC line 8 p; assay: Flow cytometry for CXCR4-positive definitive endoderm cells after differentiation, line 8 p; type: cell-based, human; conditions: TSA pretreatment
Method: as §1, §2

[5] = tested on: hpSC line 15 ph; assay: Flow cytometry for CXCR4-positive definitive endoderm cells after differentiation, line 15 ph; type: cell-based, human; conditions: TSA pretreatment
Method: as §1, §2

[6] = tested on: human parthenogenetic stem cells (hpSC); assay: Flow cytometry for CXCR4-positive cells, hpSC differentiation to definitive endoderm; type: cell-based; conditions: all 4 hpSC lines, CXCR4-positive cells by flow cytometry
Method: as §1
Flow cytometry. […] Flow cytometry data were acquired on a Beckton Dickinson FACS Caliber and analyzed using FACSDiva software (BD Bioscience). […]

[7] = tested on: human parthenogenetic stem cells (hpSC); assay: SOX17 immunostaining of differentiated hpSC; type: cell-based
Method: (§3) Cell culture. Undifferentiated hpSC and hESC were maintained on mouse embryo fibroblast feeder layers in KnockOut DMEM/F12 (Invitrogen) supplemented with 15% KnockOut serum replacement (Invitrogen), 0.05 mM nonessential amino acids (NEAA) (Invitrogen), 2 mM Glutamax-I (Invitrogen), penicillin/streptomycin (Invitrogen), 55 μM 2-mercapthoethonol (Invitrogen), 5 ng/ml recombinant human FGF-basic (PeproTech) and 20 ng/ml recombinant human activin A (R&D Systems); for TSA-pretreatment culture medium was supplemented with 100 nM TSA (Sigma) for 24 hours. Cultures were manually passaged at 1:4-1:6 split ratio every 5-7 days. Differentiation was carried out in RPMI 1640 (Invitrogen) supplemented with Glutamax-I, penicillin/streptomycin, 0.5 mg/ml human serum albumin (Sigma), 100 ng/ml recombinant human Activin A, 75 ng/ml recombinant mouse Wnt3a (R&D Systems) for the first 24 hours only. For subsequent days of differentiation media was RPMI 1640 supplemented with 0.2% human AB serum (Fisher BioReagents) and 100 ng/ml recombinant human Activin A. Before initiating differentiation, stem cells were given a brief wash in DPBS (HyClone). […] The protocol is divided into two stages: TSA-pretreatment stage (orange color) and DE differentiation stage (green color). […]

[8] = tested on: human parthenogenetic stem cells (hpSC); assay: Real-time quantitative PCR of marker gene expression in hpSC; type: cell-based
Method: Cell culture. Undifferentiated hpSC and hESC were maintained on mouse embryo fibroblast feeder layers in KnockOut DMEM/F12 (Invitrogen) supplemented with 15% KnockOut serum replacement (Invitrogen), 0.05 mM nonessential amino acids (NEAA) (Invitrogen), 2 mM Glutamax-I (Invitrogen), penicillin/streptomycin (Invitrogen), 55 μM 2-mercapthoethonol (Invitrogen), 5 ng/ml recombinant human FGF-basic (PeproTech) and 20 ng/ml recombinant human activin A (R&D Systems); for TSA-pretreatment culture medium was supplemented with 100 nM TSA (Sigma) for 24 hours. Cultures were manually passaged at 1:4-1:6 split ratio every 5-7 days. Differentiation was carried out in RPMI 1640 (Invitrogen) supplemented with Glutamax-I, penicillin/streptomycin, 0.5 mg/ml human serum albumin (Sigma), 100 ng/ml recombinant human Activin A, 75 ng/ml recombinant mouse Wnt3a (R&D Systems) for the first 24 hours only. For subsequent days of differentiation media was RPMI 1640 supplemented with 0.2% human AB serum (Fisher BioReagents) and 100 ng/ml recombinant human Activin A. Before initiating differentiation, stem cells were given a brief wash in DPBS (HyClone). […] The protocol is divided into two stages: TSA-pretreatment stage (orange color) and DE differentiation stage (green color). TSA-pretreatment is performed against background of the culture conditions that support pluripotency state of the hpSC at time interval from “−24” hours till “0” hours. Differentiation starts from time point “0” hours by applying Activin A- and Wnt3a-signaling and withholding TSA from culture medium. Several markers characteristics of each cell population are listed.
Real-time quantitative PCR. Sample collection, reverse transcription and real-time PCR reactions were as previously described (D'Amour et al, Nat. Biotechnol 23:1534-41, 2005).

[9] = tested on: undifferentiated hpSC; assay: Cell death and morphology of undifferentiated hpSC under pretreatment; type: cell-based, human; conditions: TSA pretreatment of undifferentiated hpSC
Method: as §3

[10] = tested on: LLC-6p parthenogenetic stem cell line; assay: Immunostaining of definitive endoderm markers, Example 1 protocol; type: cell-based, human; conditions: 100 μM TSA pretreatment, then D1, D2, D3 media
Method: These endoderm-like cells were derived according a protocol of various culture media (D1-Activin A+Wnt3a; D2-Activin A; D3—Activin A; see Tables 1-4, below). However, prior to culture, the parthenogenetic cells were exposed to a pretreatment agent (trichostatin A (TSA)).
Accordingly, a protocol for generating definitive endoderm cells is as follows: (i) addition of 100 μM trichostatin A (TSA) to culture medium (phSC culture medium+TSA) and culture cells for about 24 hours; (ii) cultivation of the cells in phSC culture medium+TSA for about 24 hours; (iii) remove TSA from the culture (i.e., cultivation of the cells in culture medium D1 for about 24 hours); (iv) cultivation of the cells in culture medium D2 for about 24 hours; and (v) cultivation of the cells in culture medium D3 for about 24 hours.

[11] = tested on: mouse embryonic stem cells; conditions: cited from earlier work

In the case of `CCCC(=O)[O-].[Na+]` [NaB, sodium butyrate], the “enhancement in the proportion of DE produced from hpSC” value [1] is reported as “did not produce any enhancement” and the “proportion of DE derived from hpSC” value ([1]; pretreatment of hpSC before Activin A) is reported as “increased the proportion of DE”.

For `CC(/C=C/C(=O)NO)=C\[C@@H](C)C(=O)c1ccc(N(C)C)cc1` [TSA, trichostatin A], the “CXCR-4 (CD184) + [% "Intact" Cells]” value ([2]; 3 day of differentiation) was 61.0%, the “CXCR-4 (CD184) + [% "Intact" Cells]” value ([2]; 4 day of differentiation) was 58.9% and the “CXCR-4 (CD184) + [% "Intact" Cells]” value ([3]; 3 day of differentiation) was 61.2%. For the same compound, the “CXCR-4 (CD184) + [% "Intact" Cells]” value ([3]; 4 day of differentiation) was 67.6%, the “CXCR-4 (CD184) + [% "Intact" Cells]” value ([4]; 3 day of differentiation) was 67.1% and the “CXCR-4 (CD184) + [% "Intact" Cells]” value ([4]; 4 day of differentiation) was 76.7%. The “CXCR-4 (CD184) + [% "Intact" Cells]” value ([5]; 3 day of differentiation) was 24.1%, the “CXCR-4 (CD184) + [% "Intact" Cells]” value ([5]; 4 day of differentiation) was 34.2% and the “increase in number of definitive endoderm cells over non-pretreated cultures” value [6] was 1.4-1.8 fold. The “relative proportion of SOX17 immunoreactive cells” value ([7]; after differentiation during 72 hours, TSA-treated versus non treated hpSC cultures) was “most numerous”, the “proportion of SOX17-positive cells” value ([7]; hpSC pretreated with TSA 24 hours, after 72 hours of differentiation) was “greater than 70%” and the “brachyury gene expression during differentiation” value ([8]; TSA-pretreated versus non TSA pretreated cultures, 24 h and 48 h of differentiation) was “higher peak level of brachyury gene expression at 24 h and sharper kinetic of reduced expression at 48 h; also recorded: significantly higher levels of brachyury transcripts”. The “brachyury expression after pretreatment” value ([8]; after 24 hours TSA pretreatment, before start of differentiation (0h)) was “slight upregulation of brachyury expression”, the “expression of pluripotency genes OCT4 and SOX2 and DE genes CER1, SOX17, CXCR4” value ([8]; after TSA pretreatment, before start of differentiation (0h)) was “no significant changes” and the “cell death and cell morphology” value [9] was “some cell death as well as changes in cell morphology”. For the same compound, the “FoxA2 expression by immunostaining” value [10] was “overwhelming majority of cells expressed FoxA2”, the “Sox17 expression by immunostaining” value [10] was “majority of cells expressed Sox17” and the “enhancement in the proportion of DE produced from hpSC” value [1] was “did not produce any enhancement”. The “effect on pluripotency factors including Nanog” value [11] was “suppression of important pluripotency factors”.
